Laboratory results: patent US20090222938A1, “Therapeutic Target Molecules For The Development of Novel Medicaments for Degenerative Diseases” (Neuroprofile GMBH, priority 2006, published 2009)

Key:
Type in all cases: cell-based
NT2-N neuron cells = test: Live/Dead-Viability/Cytotoxicity Assay, survival of neurons under chronic sublethal oxidative stressor; settings: stressor 1.0-25 μM, serum-free; more than 3 days after the time point of sampling
Source text: The increase of MAC30-mRNA in NT2-N neuron cells (Andrews P. W., Dev. Biol., 103, pp 285-293, 1984; Pleasure S. J., Page C., Lee V. M.-Y., J. Neurosci., 12, pp 1802-1815, 1992) has been detected in microarray analyses using fluorescence-labelled cDNA after treating the cells under serum-free conditions with chronic sublethal concentrations of the oxidative stressor haloperidol (Sigma; catalogue No. H-1512). Appropriate conditions for an optimal survival rate of the cells were obtained by means of the Live/Dead-Viability/Cytotoxicity Assay (Molecular Probes) according to the manual of the manufacturer. […] 2′,7′-dichlorodihydrofluorescein-diacetate (Sigma, catalogue No. D6883) was used for determining total cell quantity of ROS. […] Subsequently, the cells were homogenized by sonication, centrifugated (20 minutes, 4° C., 20.000×g), and the fluorescence of the supernatant was measured. […] The relative increase of ROS was calculated in relation to the control. Further, ROS was determined by means of dihydroethidium (DHE; Sigma catalogue No. D7008). 5 μM DHE was added into an aliquot of the scraped cells, incubated for 1 hour at 37° C., processed analogous to the DCFDA procedure, and the fluorescence of the supernatant was determined. The protein adjusted alteration of mitochondrial ROS was calculated in relation to the untreated control. […]

[1] = system: MAC30-mRNA in NT2-N neuron cells; test: MAC30 mRNA quantitative real-time RT-PCR (SYBR Green 1) after stressor treatment
Source text: The MAC30-mRNA increase may be quantified by a quantitative real-time RT-PCR analysis (qRTRTPCR) with fluorescence labelling by SYBR Green 1.

[2] = system: BRI3-mRNA in NT2-N neurons; test: BRI3 mRNA quantitative real-time RT-PCR after stressor treatment
Source text: This increase may be quantified by means of a quantitative real-time RT-PCR analysis (qRTRTPCR) with fluorescence labelling by SYBR Green 1.

[3] = system: G1P3-mRNA in NT2-N neurons; test: G1P3 mRNA quantitative real-time RT-PCR after stressor treatment
Source text: The increase was quantified by means of a quantitative real-time RT-PCR analysis (qRTRTPCR) with fluorescence labeling by SYBR Green 1. […] The PCR primer pair G1P3-For1 (5′-[sequence]-3′) (SEQ ID NO: 118) and GIP3-Rev2 (5′-[sequence]-3′) (SEQ ID NO: 119) is suitable for the analysis of the G1P3 mRNA by means of qRTRTPCR.

[4] = system: LOC222171-mRNA in NT2-N neurons; test: LOC222171 mRNA quantitative real-time RT-PCR after stressor treatment; settings: 15 days of treatment
Source text: This increase was quantified by means of a quantitative real time RT-PCR analysis (qRTRTPCR) featuring fluorescence labelling by SYBR-Green 1. […] The PCR primer pair LOC222171-For1 (5′-[sequence]-3′) (SEQ ID NO: 120) and LOC222171-Rev2 (5′-[sequence]-3′) (SEQ ID NO: 121) is suitable for the analysis of the LOC222171 mRNA by means of qRTRTPCR.

[5] = system: CUEDC1-mRNA in NT2-N neurons; test: CUEDC1 mRNA quantitative real-time RT-PCR after stressor treatment; settings: 15 days of chronic oxidative stress
Source text: This increase was further quantified by means of a quantitative real time RT-PCR analysis (qRTRTPCR) with fluorescence labelling by SYBR-Green 1. […] The PCR primer pair CUEDC1-For1 (5′-[sequence]-3′) (SEQ ID NO: 122) and CUEDC1-Rev2 (5′-[sequence]-3′) (SEQ ID NO: 123) is suitable for the analysis of the CUEDC1 mRNA by means of qRTRTPCR.

[6] = system: NPC2-mRNA in NT2-N neurons; test: NPC2 mRNA quantitative real-time RT-PCR after stressor treatment
[7] = system: SCD-mRNA in NT2-N neurons; test: SCD mRNA quantitative real-time RT-PCR after stressor treatment; settings: 15 day treatment
[8] = system: IDI1 protein in NT2-N neurons; test: IDI1 protein quantity by two dimensional polyacrylamid gel electrophoresis and mass spectrometric identification; settings: 15 day treatment
Source text: The increase of the IDI1 protein (IDI1=Isopentenyl-diphosphate delta isomerase 1; =Isopentenyl diphosphate dimethylallyl diphosphate isomerase 1) was detected with a two dimensional polyacrylamid gel electrophoresis after treatment of NT2-N neurons with haloperidol (as described in example 1) and subsequent mass spectrometric identification of the protein spot.

[9] = longer treatment, 'may achieve up to ... or more'

SMILES: O=C(CCCN1CCC(O)(c2ccc(Cl)cc2)CC1)c1ccc(F)cc1 [haloperidol]
- neurons alive (NT2-N neuron cells): More than 75%
- MAC30-mRNA increase ([1]; 8-day treatment, 1.0-25 μM): at least 50%
- MAC30-mRNA increase [1, 9]: ≥ 200%
- BRI3-mRNA increase ([2]; 8-day treatment): ≥ 40%
- BRI3-mRNA increase ([2]; 3 days after treatment): increase can be detected
- BRI3-mRNA increase [2, 9]: ≥ 200%
- G1P3-mRNA increase ([3]; 8-day treatment): ≥ 50%
- G1P3-mRNA increase ([3]; after 3 days): marked increase
- G1P3-mRNA increase [3, 9]: ≥ 400%
- LOC222171-mRNA increase [4]: ≥ 50%
- CUEDC1-mRNA increase [5]: more than 30%
- NPC2-mRNA increase ([6]; 15 days of chronic sublethal oxidative stress): ≥ 50%
- NPC2-mRNA increase in comparison to untreated neurons ([6]; after 3 days): significant increase
- SCD-mRNA increase in comparison to untreated neurons [7]: ≥ 50%
- IDI1-protein quantity increase [8]: ≥ 30%
